Measured values as given in patent US9896441B2 (Lycera Corporation, priority 2014, dated 2018).

Tests used:
RORγ-LBD = target: T1, RORγ-LBD (Homo sapiens, UniProt P51449); assay: RORγ-Ligand Binding Domain (LBD) TR-FRET Assay; format: biochemical; conditions: RORγ-LBD TR-FRET
T1 construct: made in house; host or cells: SF9 cells (baculovirus); used as diluted lysate
T1 sequence (P51449 269-508 limits assumed): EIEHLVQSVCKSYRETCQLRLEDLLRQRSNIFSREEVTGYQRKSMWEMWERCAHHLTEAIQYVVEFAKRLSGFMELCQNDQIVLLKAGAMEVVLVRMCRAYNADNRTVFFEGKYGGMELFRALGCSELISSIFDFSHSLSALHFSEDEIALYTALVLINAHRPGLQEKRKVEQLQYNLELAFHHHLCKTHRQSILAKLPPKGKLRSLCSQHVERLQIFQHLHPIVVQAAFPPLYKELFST
How it was run: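 TR-FRET read-out using a biotin-tagged SRC1 coactivator LXXLL peptide (200 nM final), with the antagonist ursolic acid present at 2 μM final. Receptor is His-tagged LBD expressed in SF9 cells, ~3 nM final in pH 7.0 Tris/KCl/EDTA/DTT/BSA buffer; compounds in 1% DMSO final.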

Gal4-RORγ-LBD = target: T2, Gal4-RORγ-LBD (Homo sapiens, UniProt P51449); assay: Gal4-RORγ Luciferase Reporter Assay in HEK-293T Cells; format: cell-based; conditions: HEK-293 cells, luciferase reporter, with ursolic acid
T2 construct: expressed in transfected cells
T2 sequence (P51449 269-508 limits assumed): T1 sequence (P51449 269-508 limits assumed)
How it was run: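 Max Response was taken as the upper plateau of a 4-parameter logistic fit of luciferase signal, normalized to 100 for wells without ursolic acid or compound. Transiently Gal4-RORγ-LBD/Gal4-luc transfected HEK-293 cells carrying […] ursolic acid were incubated with test compounds (0.2% DMSO) overnight at 37 °C and read with One-Glo.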

| SMILES | EC50 (RORγ-LBD) [nM] | EC50 (Gal4-RORγ-LBD) [nM] |
| --- | --- | --- |
| CCOc1nn(CC)cc1S(=O)(=O)N1C[C@H](CCC(=O)OC)Oc2ccc(/C=C/c3cccc(OC)n3)cc21 [Example 89T, (S,E)-methyl 3-(4-((3-ethoxy-1-ethyl-1H-pyrazol-4-yl)-sulfonyl)-6-(2-(6-methoxypyridin-2-yl)vinyl)-3,4-dihydro-2H-benzo[b][1,4]-oxazin-2-yl)propanoate] | > 10000 | > 10000 |
| CCOc1nn(CC)cc1S(=O)(=O)N1C[C@H](CCC(=O)O)Oc2ccc(/C=C/c3ncccc3F)cc21 [Example 89W, (S,E)-3-(4-((3-ethoxy-1-ethyl-1H-pyrazol-4-yl)sulfonyl)-6-(2-(3-fluoropyridin-2-yl)vinyl)-3,4-dihydro-2H-benzo[b][1,4]-oxazin-2-yl)propanoic acid] | 5000 to 10000 | > 10000 |
| CCOc1nn(CC)cc1S(=O)(=O)N1C[C@H](CCC(=O)OC)Oc2ccc(/C=C/c3ncccc3F)cc21 [Example 89X, (S,E)-methyl 3-(4-((3-ethoxy-1-ethyl-1H-pyrazol-4-yl)-sulfonyl)-6-(2-(3-fluoropyridin-2-yl)vinyl)-3,4-dihydro-2H-benzo[b][1,4]oxazin-2-yl)propanoate] | 500 to 5000 | > 10000 |
| COC(=O)CC[C@H]1CN(S(=O)(=O)c2cccc(C(F)(F)F)c2)c2cc(C=C3CCCCC3)ccc2O1 [Example 90, Methyl (S)-3-(6-(cyclohexylidenemethyl)-4-((3-(trifluoromethyl)phenyl)sulfonyl)-3,4-dihydro-2H-benzo[b][1,4]oxazin-2-yl)propanoate] | < 500 | 500 to 5000 |
| O=C(O)CC[C@H]1CN(S(=O)(=O)c2cccc(C(F)(F)F)c2)c2cc(C=C3CCCCC3)ccc2O1 [Example 91, (S)-3-(6-(Cyclohexylidenemethyl)-4-((3-(trifluoromethyl)phenyl)sulfonyl)-3,4-dihydro-2H-benzo[b][1,4]oxazin-2-yl)propanoic acid] | < 500 | 500 to 5000 |
| O=C(O)CC[C@H]1CN(S(=O)(=O)c2cccc(C(F)(F)F)c2)c2cc(C=C3CCCC3)ccc2O1 [Example 92, (S)-3-(6-(Cyclopentylidenemethyl)-4-((3-(trifluoromethyl)phenyl)sulfonyl)-3,4-dihydro-2H-benzo[b][1,4]oxazin-2-yl)propanoic acid] | < 500 | 500 to 5000 |
| O=C(O)CC[C@H]1CN(S(=O)(=O)c2cccc(C(F)(F)F)c2)c2cc(CC3CCCCC3)ccc2O1 [Example 93, (S)-3-(6-(Cyclohexylmethyl)-4-((3-(trifluoromethyl)phenyl)sulfonyl)-3,4-dihydro-2H-benzo[b][1,4]oxazin-2-yl)propanoic acid] | < 500 | 500 to 5000 |
| O=C(O)CC[C@H]1CN(S(=O)(=O)c2cccc(C(F)(F)F)c2)c2cc(C=C3CCC(O)CC3)ccc2O1 (stereo partly shown) [Example 94] | < 500 | 500 to 5000 |

Further lines, results first:

| EC50 (RORγ-LBD) [nM] | EC50 (Gal4-RORγ-LBD) [nM] | SMILES |
| --- | --- | --- |
| < 500 | 500 to 5000 | C[C@@H]1C/C(=C\c2ccc3c(c2)N(S(=O)(=O)c2cc(C(F)(F)F)cnc2OCCO)C[C@H](CCC(=O)O)O3)C[C@H](C)C1 [Example 95AA, 3-((S)-6-((E)-((3R,5S)-3,5-dimethylcyclohexylidene)-methyl)-4-((2-(2-hydroxy-ethoxy)-5-(trifluoromethyl)-pyridin-3-yl)sulfonyl)-3,4-dihydro-2H-benzo[b][1,4]oxazin-2-yl)propanoic acid] |
| < 500 | 500 to 5000 | CC(C)=Cc1ccc2c(c1)N(S(=O)(=O)c1cccc(C(F)(F)F)c1)C[C@H](CCC(=O)O)O2 [Example 95AB, (S)-3-(6-(2-methylprop-1-en-1-yl)-4-((3-(trifluoromethyl)-phenyl)sulfonyl)-3,4-dihydro-2H-benzo[b][1,4]oxazin-2-yl)propanoic acid] |
| < 500 | 500 to 5000 | COC(=O)CC[C@H]1CN(S(=O)(=O)c2cc(C(F)(F)F)cnc2OCCO)c2cc(C=C(C)C)ccc2O1 [Example 95AD, methyl (S)-3-(4-((2-(2-hydroxyethoxy)-5-(trifluoromethyl)pyridin-3-yl)sulfonyl)-6-(2-methylprop-1-en-1-yl)-3,4-dihydro-2H-benzo[b][1,4]oxazin-2-yl)propanoic acid] |
| < 500 | 500 to 5000 | CCOc1ncc(C(F)(F)F)cc1S(=O)(=O)N1C[C@H](CCC(=O)O)Oc2ccc(C=C3CCCCC3)cc21 [Example 95B, (S)-3-(6-(cyclohexylidenemethyl)-4-((2-ethoxy-5-(trifluoromethyl)pyridin-3-yl)sulfonyl)-3,4-dihydro-2H-benzo[b][1,4]oxazin-2-yl)propanoic acid] |
| < 500 | 500 to 5000 | O=C(O)CC[C@H]1CN(S(=O)(=O)c2cc(C(F)(F)F)cnc2OCCO)c2cc(C=C3CCCCC3)ccc2O1 [Example 95C, (S)-3-(6-(cyclohexylidenemethyl)-4-((2-(2-hydroxyethoxy)-5-(trifluoromethyl)pyridin-3-yl)sulfonyl)-3,4-dihydro-2H-benzo[b][1,4]oxazin-2-yl)propanoic acid] |
| < 500 | 500 to 5000 | O=C(O)CC[C@H]1CN(S(=O)(=O)c2cc(C(F)(F)F)cnc2OCCO)c2cc(CC3CCCCC3)ccc2O1 [Example 95D, (S)-3-(6-(cyclohexylmethyl)-4-((2-(2-hydroxyethoxy)-5-(trifluoromethyl)pyridin-3-yl)sulfonyl)-3,4-dihydro-2H-benzo[b][1,4]oxazin-2-yl)propanoic acid] |
| < 500 | < 500 | CCC(=Cc1ccc2c(c1)N(S(=O)(=O)c1cccc(C(F)(F)F)c1)C[C@H](CCC(=O)O)O2)CC [Example 95E, (S)-3-(6-(2-ethylbut-1-en-1-yl)-4-((3-(trifluoromethyl)phenyl)-sulfonyl)-3,4-dihydro-2H-benzo[b][1,4]oxazin-2-yl)propanoic acid] |
| < 500 | 500 to 5000 | CCC(=Cc1ccc2c(c1)N(S(=O)(=O)c1cc(C(F)(F)F)cnc1OCCO)C[C@H](CCC(=O)O)O2)CC [Example 95F, (S)-3-(6-(2-ethylbut-1-en-1-yl)-4-((2-(2-hydroxyethoxy)-5-(trifluoromethyl)pyridin-3-yl)sulfonyl)-3,4-dihydro-2H-benzo[b][1,4]oxazin-2-yl)propanoic acid] |
| < 500 | 500 to 5000 | CC1CCC/C(=C\c2ccc3c(c2)N(S(=O)(=O)c2cccc(C(F)(F)F)c2)C[C@H](CCC(=O)O)O3)C1 (stereo partly drawn) [Example 95G, 3-((2S)-6-((E)-(3-methylcyclo-hexylidene)methyl)-4-((3-(trifluoromethyl)phenyl)sulfonyl)-3,4-dihydro-2H-benzo[b][1,4]-oxazin-2-yl)propanoic acid] |
| < 500 | 500 to 5000 | CC1(C)CCC(=Cc2ccc3c(c2)N(S(=O)(=O)c2cccc(C(F)(F)F)c2)C[C@H](CCC(=O)O)O3)CC1 [Example 95H, (S)-3-(6-((4,4-dimethylcyclo-hexylidene)methyl)-4-((3-(trifluoromethyl)phenyl)sulfonyl)-3,4-dihydro-2H-benzo[b][1,4]oxazin-2-yl)propanoic acid] |
| < 500 | 500 to 5000 | O=C(O)CC[C@H]1CN(S(=O)(=O)c2cccc(C(F)(F)F)c2)c2cc(/C=C3/CCCOC3)ccc2O1 [Example 95J, (S,Z)-3-(6-((dihydro-2H-pyran-3(4H)-ylidene)methyl)-4-((3-(trifluoromethyl)phenyl)sulfonyl)-3,4-dihydro-2H-benzo[b][1,4]oxazin-2-yl)propanoic acid] |
| < 500 | 500 to 5000 | CC1CCC(=Cc2ccc3c(c2)N(S(=O)(=O)c2cccc(C(F)(F)F)c2)C[C@H](CCC(=O)O)O3)CC1 (stereo partly drawn) [Example 95K, 3-((2S)-6-((4-methylcyclo-hexylidene)methyl)-4-((3-(trifluoromethyl)phenyl)sulfonyl)-3,4-dihydro-2H-benzo[b][1,4]oxazin-2-yl)propanoic acid] |
| < 500 | < 500 | O=C(O)CC[C@H]1CN(S(=O)(=O)c2cccc(C(F)(F)F)c2)c2cc(C=C3CCC(F)(F)CC3)ccc2O1 [Example 95L, (S)-3-(6-((4,4-difluorocyclo-hexylidene)methyl)-4-((3-(trifluoromethyl)phenyl)sulfonyl)-3,4-dihydro-2H-benzo[b][1,4]oxazin-2-yl)propanoic acid] |
| < 500 | 500 to 5000 | O=C(O)CC[C@H]1CN(S(=O)(=O)c2cc(C(F)(F)F)cnc2OCCO)c2cc(C=C3CCC(F)(F)CC3)ccc2O1 [Example 95M, (S)-3-(6-((4,4-difluorocyclohexylidene)methyl)-4-((2-(2-hydroxyethoxy)-5-(trifluoromethyl)pyridin-3-yl)sulfonyl)-3,4-dihydro-2H-benzo[b][1,4]oxazin-2-yl)propanoic acid] |
| < 500 | 500 to 5000 | O=C(O)CC[C@H]1CN(S(=O)(=O)c2cccc(C(F)(F)F)c2)c2cc(C=C3CCOCC3)ccc2O1 [Example 95N, (S)-3-(6-((tetrahydro-4H-pyran-4-ylidene)methyl)-4-((3-(trifluoromethyl)phenyl)sulfonyl)-3,4-dihydro-2H-benzo[b][1,4]oxazin-2-yl)propanoic acid] |
